Numbering of substitutions follows the chain as printed. Like-named read-outs stand apart in the source and are kept apart here.
Key:
wild-type human AR = target: T1, wild-type human AR (Homo sapiens, UniProt P10275); assay: Luciferase assay for AR transactivation, wild-type AR, PC-3 cells; assay type: cell-based; design: Antiandrogenic activity evaluated by luciferase assay in PC-3 cells WT: key to the marks not given beside the values; settings: 0.1 nM DHT; for suppression of DHT-induced transactivation of wild-type AR: test compound 0.1-1 μM, PC-3 cells; for Antiandrogenic activity evaluated by luciferase assay in PC-3 cells WT: test compound 1 μM
T1 construct: utilizing plasmid expressing a full length of AR; expressed in transfected cells; host or cells: PC-3 cells, plasmid pCMV-AR-wt
T1 sequence (P10275 1-920): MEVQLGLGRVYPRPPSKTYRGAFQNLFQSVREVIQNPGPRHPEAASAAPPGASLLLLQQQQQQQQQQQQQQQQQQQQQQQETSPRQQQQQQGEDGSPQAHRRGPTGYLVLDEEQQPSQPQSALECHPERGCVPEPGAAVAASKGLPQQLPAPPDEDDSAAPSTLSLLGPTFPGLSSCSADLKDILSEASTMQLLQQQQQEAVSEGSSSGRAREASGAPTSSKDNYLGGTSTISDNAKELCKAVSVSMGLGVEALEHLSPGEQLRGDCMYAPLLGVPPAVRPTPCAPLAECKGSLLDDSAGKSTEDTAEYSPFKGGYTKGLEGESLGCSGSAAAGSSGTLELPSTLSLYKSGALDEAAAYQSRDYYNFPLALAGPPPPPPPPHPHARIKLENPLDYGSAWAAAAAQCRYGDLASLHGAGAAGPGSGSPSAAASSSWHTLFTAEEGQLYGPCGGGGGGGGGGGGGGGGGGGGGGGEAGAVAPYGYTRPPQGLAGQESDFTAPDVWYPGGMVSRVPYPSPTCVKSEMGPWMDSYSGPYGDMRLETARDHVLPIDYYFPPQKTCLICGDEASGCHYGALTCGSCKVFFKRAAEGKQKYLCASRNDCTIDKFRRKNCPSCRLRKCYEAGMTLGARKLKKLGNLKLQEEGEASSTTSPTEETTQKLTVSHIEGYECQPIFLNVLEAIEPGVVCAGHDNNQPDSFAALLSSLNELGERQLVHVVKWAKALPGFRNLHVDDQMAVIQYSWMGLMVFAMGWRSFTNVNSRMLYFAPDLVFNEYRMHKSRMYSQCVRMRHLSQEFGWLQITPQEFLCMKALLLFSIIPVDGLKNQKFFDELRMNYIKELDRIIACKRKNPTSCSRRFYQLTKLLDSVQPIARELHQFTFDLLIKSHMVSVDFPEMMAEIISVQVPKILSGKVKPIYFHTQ
Method: (§1) PC-3 cells were transiently transfected with pCMV-MMTV-Luc, Renilla null luciferase and AR expressing plasmids. The cells were treated with 0.1 nM DHT with and without test compound for 24 hr. Relative luciferase activity was determined by dual luciferase assay kit (Promega), standardized to Renilla luciferase control and normalized to 0.1 nM DHT without test compound (100%).
(§2) After 16 h, the cells were treated with 0.1 nM of DHT and test compounds at the designated concentration. After further 24 h, the cells were lysed in 100 μL/well passive lysis buffer, and 20 μL of the cell lysates was used for detection of the luciferase activity using Dual Luciferase Assay System (Promega). All experiments were run in triplicate. Relative luciferase activity is determined as the ratio of inducible firefly luciferase luminescence divided by the luminescence of the renilla luciferase control normalized to 0.1 nM DHT without test compounds.
(§3) The potency of antagonistic activity: ++>+.
PC-3 cells were transiently transfected with plasmid expressing wild type human AR and MMTV-Luc. […] RLU, relative luciferase units, were normalized to that of 0.1 nM DHT alone.

T877A mutated AR = target: T2, T877A mutated AR (Homo sapiens, UniProt P10275, T878A); assay: Luciferase assay for AR transactivation, T877A AR, PC-3 cells; assay type: cell-based; settings: 0.1 nM DHT; for suppression of DHT-induced transactivation of T877A AR: test compound 0.1-1 μM, PC-3 cells; for Antiandrogenic activity evaluated by luciferase assay in PC-3 cells T877A: test compound 1 μM
T2 sequence (P10275 1-920 T878A): T1 sequence (P10275 1-920) with T878A
Method: as §1, §2, §3

LNCaP cells = assay: MTT cell growth inhibition, LNCaP;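 also: MTT formazan absorbance at 600 nm read after 72 h of compound exposure, IC50 fitted by nonlinear regression of dose-response curves, samples run in triplicate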
[1] = read-out: Cellular IC50 (μM) LNCaP, Table 9

SMILES	suppression of DHT-induced transactivation of wild-type AR (wild-type human AR)	suppression of DHT-induced transactivation of T877A AR (T877A mutated AR)	IC50 (LNCaP cells; read-out: IC50 in LNCaP cells) [µM]	Antiandrogenic activity evaluated by luciferase assay in PC-3 cells WT (wild-type human AR)	Antiandrogenic activity evaluated by luciferase assay in PC-3 cells T877A (T877A mutated AR)	IC50 (LNCaP cells; [1]) [µM]
CC1=C(/C=C/C(=O)/C=C/c2cccc(C(F)(F)F)c2)C(C)(C)CCC1O (racemic) [Compound B25]	modest antiandrogenic activity	dose-dependent activity	0.74	–	–	–
CC1(C)CCC(O)C=C1/C=C/C(=O)/C=C/c1csc2ccccc12 (stereo not drawn) [Compound B92]	–	pure antagonists	–	++	++	1.1
CC1(C)CCC(O)C=C1/C=C/C(=O)/C=C/c1cnc2ccccc2c1 (stereo not drawn) [Compound B95]	effective	effective	–	++	++	0.63

— US8470889B2 (TRT Pharma Inc., priority 2008, dated 2013)
